# Source: patent publication US20220143136A1, “USE OF ANNEXINS IN PREVENTING AND TREATING MUSCLE MEMBRANE INJURY” (NORTHWESTERN UNIVERSITY, priority 2018, published 2022)
# Test system: Anxa6^em1(GFP) mice
# Assay: Prednisone injection, annexin A6GFP repair cap after laser injury of isolated myofibers
# Type: in vivo, mouse
# Conditions: 1 mg/kg intraperitoneal, myofibers isolated 24 hours post injection; vs DMSO control
# Method: Multiphoton laser injury and imaging. Isolated fibers were subjected to laser-induced damage at room temperature using the Nikon A1R-MP multiphoton microscope. Imaging was performed using a 25×1.1 NA objective directed by the NIS-Elements AR imaging software. Green fluorescence protein (GFP) and FM 4-64 were excited using a 920 nm wavelength laser and emission wavelengths of […] and 629 nm were collected respectively. To induce laser damage on isolated myofibers, a diffraction limited spot (diameter approximately 410 nm) was created on the lateral membrane of the myofiber using a 920 nm wavelength laser at 10-15% laser power for 1 second. Time lapse images were collected as follows: one image was collected prior to damage, one image upon damage, then every 8 s for 80 s (10 images) followed by every 30 seconds for 5 min (10 images). At the end of the time lapsed image series, z-stack images were collected at 250 nm intervals through the damaged site on the myofiber directed by the NIS-Elements AR imaging software. Fluorescence intensity and cap area were measured using Fiji (NIH).
# For prednisone studies, prednisone (catalog P6254) was resuspended in DMSO (catalog D2650, Sigma-Aldrich) at 5 mg/ml. Dosing was based on pretreatment weights (1 mg/kg body weight) in 30 μl total PBS. Mice were injected at 7 am on the day prior to imaging. […]
compound,measurement,value
C[C@]12C=CC(=O)C=C1CC[C@@H]1[C@@H]2C(=O)C[C@@]2(C)[C@H]1CC[C@]2(O)C(=O)CO [prednisone],annexin A6GFP repair cap size,reduced
